Test systems include IGROV1 ovarian; HOP-92 NSCLC; HS 578T breast; DU-145 prostate; NCI/ADR-RES ovarian; RXF 393 renal; SNB-19 CNS; OVCAR-8 ovarian; OVCAR-5 ovarian; SK-MEL-2 melanoma.
Common to all, as to assay: growth of human tumour cells (NCI), 48 h

GI50 and TGI data for eight compounds are collected here from PubChem BioAssay (NCI).

Each structure is given as a SMILES string.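 Cells were grown in 96-well plates and exposed to each compound for 48 hours at five concentrations; endpoints were interpolated linearly between bracketing concentrations, or set to the highest concentration if not reached. GI50 marks 50% less growth. The concentration for full growth arrest is given as TGI.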 Where only a bound is given, the exact number is not on record here.

`COc1cc(OC)c(/C=C/C(=O)c2c(OC)cc(OC)cc2OC)c(OC)c1`: the GI50 in the test on IGROV1 ovarian is 0.577 µM; with HOP-92 NSCLC, 0.534 µM; in the test with HS 578T breast, 1.39 µM; in the test on DU-145 prostate, 2.21 µM; in the test on NCI/ADR-RES ovarian, 0.469 µM; in the test with RXF 393 renal it was 1.3 µM. In addition, the GI50 in the test on SNB-19 CNS was 2.54 µM; with OVCAR-8 ovarian, 3.43 µM; in the test on OVCAR-5 ovarian, 2.8 µM; with SK-MEL-2 melanoma, 0.984 µM. Also, the TGI with IGROV1 ovarian was 25.2 µM; in the test with HOP-92 NSCLC, 6.5 µM; in the test with HS 578T breast, 6.37 µM; in the test on DU-145 prostate it was 8.51 µM; in the test on NCI/ADR-RES ovarian, 10 µM; in the test on RXF 393 renal it was 4.99 µM. Also, the TGI with SNB-19 CNS was 14.9 µM; with OVCAR-8 ovarian, greater than 100 µM; with OVCAR-5 ovarian, 53 µM; in the test with SK-MEL-2 melanoma it was greater than 21.8 µM.

As for `O=C1C=CC2C3C(=O)N(c4ccccc4)C(=O)C3C1N2Cc1ccccc1` (centres undefined), the GI50 in the test on IGROV1 ovarian is 4.81 µM; in the test with HOP-92 NSCLC, 3.66 µM; with DU-145 prostate, 9.65 µM; in the test with NCI/ADR-RES ovarian it was 2.55 µM; in the test with RXF 393 renal it was 2.42 µM; with SNB-19 CNS it was 6.04 µM. Further, the GI50 with OVCAR-8 ovarian was 2.88 µM; in the test on OVCAR-5 ovarian, 6.74 µM; in the test with SK-MEL-2 melanoma, 4.37 µM. Besides, the TGI was 12.3 µM in the test on IGROV1 ovarian; 9.75 µM in the test on HOP-92 NSCLC; 13.9 µM in the test on HS 578T breast; 22.4 µM with DU-145 prostate; 8.75 µM with NCI/ADR-RES ovarian; 6.53 µM with RXF 393 renal. Besides, the TGI stood at 13.2 µM in the test with SNB-19 CNS, 10.1 µM in the test with OVCAR-8 ovarian, 19.3 µM in the test on OVCAR-5 ovarian and 9.29 µM in the test on SK-MEL-2 melanoma.

With `Oc1c(C(Nc2ccccn2)c2ccccc2)ccc2cccnc12` (centres undefined), the TGI with IGROV1 ovarian is 16.3 µM; in the test with HOP-92 NSCLC, 9.97 µM; in the test on HS 578T breast, greater than 87.9 µM; with DU-145 prostate, greater than 100 µM; with NCI/ADR-RES ovarian it was 8.73 µM; with RXF 393 renal, 40.1 µM. For the same compound, the TGI in the test on SNB-19 CNS is greater than 100 µM; in the test on OVCAR-8 ovarian, 23.7 µM; with OVCAR-5 ovarian, greater than 100 µM; in the test with SK-MEL-2 melanoma, greater than 28.4 µM.

For the compound `CCN1CCN(C(=O)[C@]23CC[C@@H](C)[C@H](C)[C@@H]2C2=CC[C@@H]4[C@@]5(C)CCC(=O)C(C)(C)[C@@H]5CC[C@@]4(C)[C@]2(C)CC3)CC1`, the GI50 in the test with IGROV1 ovarian was 1.4 µM; in the test with HOP-92 NSCLC, 0.713 µM; with HS 578T breast, 1.07 µM; in the test on DU-145 prostate it was 1.67 µM; with NCI/ADR-RES ovarian, 1.08 µM; in the test with RXF 393 renal, 0.822 µM. In addition, the GI50 in the test with SNB-19 CNS is 0.849 µM; with OVCAR-8 ovarian, 1.1 µM; in the test with OVCAR-5 ovarian, 0.907 µM; with SK-MEL-2 melanoma, 1.29 µM. The TGI with IGROV1 ovarian is 4.85 µM; in the test on HOP-92 NSCLC, 2.06 µM; in the test with HS 578T breast it was 2.68 µM; in the test with DU-145 prostate, 5.62 µM; in the test on NCI/ADR-RES ovarian it was 3.24 µM; in the test with RXF 393 renal it was 1.74 µM. The TGI was found to be 1.72 µM with SNB-19 CNS, 2.89 µM with OVCAR-8 ovarian, 1.87 µM with OVCAR-5 ovarian and 3.33 µM in the test with SK-MEL-2 melanoma.

With `CCCCCCCCN(CCCCCCCC)CC(O)c1cc(-c2ccccc2)nc2ccc(OC)cc12` (centres undefined), the GI50 with IGROV1 ovarian was greater than 100 µM; in the test with HOP-92 NSCLC, 57.5 µM; with HS 578T breast, greater than 100 µM; in the test on DU-145 prostate it was 37 µM; with NCI/ADR-RES ovarian it was 16.3 µM; in the test on RXF 393 renal, 43.7 µM. The GI50 in the test on SNB-19 CNS is 54.7 µM; with OVCAR-8 ovarian it was 32.2 µM; in the test on OVCAR-5 ovarian it was greater than 100 µM; with SK-MEL-2 melanoma, 50.3 µM. In addition, the TGI in the test on IGROV1 ovarian, in the test with HOP-92 NSCLC, in the test with HS 578T breast, in the test on DU-145 prostate, with NCI/ADR-RES ovarian and with RXF 393 renal was greater than 100 µM each time. Further, the TGI in the test with SNB-19 CNS, in the test with OVCAR-8 ovarian, in the test with OVCAR-5 ovarian and in the test with SK-MEL-2 melanoma was greater than 100 µM in each case.

As for `Oc1c(C(c2ccc(F)cc2)N2CCCCC2)ccc2cncnc12` (centres undefined), the GI50 is 0.532 µM in the test with IGROV1 ovarian; 0.313 µM in the test on HOP-92 NSCLC; 0.432 µM with HS 578T breast; 0.784 µM in the test on DU-145 prostate; 2.58 µM in the test with NCI/ADR-RES ovarian; 0.416 µM in the test with RXF 393 renal. Besides, the GI50 in the test on SNB-19 CNS is 0.396 µM; in the test with OVCAR-8 ovarian, 0.453 µM; with OVCAR-5 ovarian, 1.28 µM; in the test with SK-MEL-2 melanoma, 0.527 µM. For the same compound, the TGI in the test with IGROV1 ovarian was 21.7 µM; with HOP-92 NSCLC it was 2.96 µM; in the test on HS 578T breast, greater than 100 µM; in the test on DU-145 prostate it was greater than 100 µM; with NCI/ADR-RES ovarian it was greater than 100 µM; with RXF 393 renal, 12.2 µM. The TGI with SNB-19 CNS was greater than 100 µM; in the test on OVCAR-8 ovarian, greater than 100 µM; in the test with OVCAR-5 ovarian it was greater than 100 µM; with SK-MEL-2 melanoma, 5.86 µM.

On to `COC(=O)C1=C(C)NC(=S)NC1c1ccc(N(CCCl)CCCl)cc1Cl` (centres undefined), for which the TGI in the test with IGROV1 ovarian is greater than 89.1 µM; with HOP-92 NSCLC it was greater than 100 µM; in the test with HS 578T breast it was greater than 100 µM; in the test with DU-145 prostate it was greater than 81.1 µM; with NCI/ADR-RES ovarian, greater than 100 µM; in the test with RXF 393 renal, greater than 81.2 µM. For the same compound, the TGI with SNB-19 CNS is greater than 100 µM; in the test with OVCAR-8 ovarian it was greater than 100 µM; in the test on OVCAR-5 ovarian it was greater than 100 µM; in the test with SK-MEL-2 melanoma it was greater than 85.9 µM.

On to `Cc1ccsc1C(NC(=O)c1ccccc1)c1cc(Cl)c2cccnc2c1O` (centres undefined), for which the GI50 is 0.55 µM with IGROV1 ovarian; 0.442 µM with HOP-92 NSCLC; 0.379 µM with HS 578T breast; 0.869 µM with DU-145 prostate; 0.284 µM in the test on NCI/ADR-RES ovarian; 1.77 µM in the test with RXF 393 renal. The GI50 in the test with SNB-19 CNS is 0.394 µM; with OVCAR-8 ovarian, 0.405 µM; in the test with OVCAR-5 ovarian, 2.67 µM; with SK-MEL-2 melanoma, 0.609 µM. For the same compound, the TGI in the test on IGROV1 ovarian was determined as 4.77 µM; with HOP-92 NSCLC, 7.45 µM; in the test with HS 578T breast, 19.7 µM; with DU-145 prostate, 14.2 µM; in the test on NCI/ADR-RES ovarian, 7.18 µM; in the test with RXF 393 renal, 6.08 µM. Moreover, the TGI amounted to 15.7 µM in the test with SNB-19 CNS, 24 µM with OVCAR-8 ovarian, 42 µM in the test with OVCAR-5 ovarian and 8.75 µM with SK-MEL-2 melanoma.
